Data as given in US7968595B2, “Substituted 4-aryl-chromene as activator of caspases and inducer of apoptosis and as antivascular agent and the use thereof” (Cytovia, Inc., priority 2006, dated 2011).

Experiments:
HUVEC cells = test: HUVEC tube disruption assay; assay type: cell-based
Method: Aliquots of Matrigel basement membrane matrix (300 μl, BD Biosciences, Mississauga, Ontario, Canada) were added to each well of 24-well plates (Fisher Scientific Ltd, Nepean, Ontario, Canada) and allowed to incubate for 1 h at 37° C. HUVEC cells (3×10^4) were added per well in EGM-2 and incubated for 4 h at 37° C. in a 5% CO2 atmosphere to allow the cells to form tube-like structures. Compound 1R was diluted in DMSO to its respective concentrations, added to cells, and allowed to incubate for 1 h at 37° C. in a 5% CO2 atmosphere. Following the incubation, the medium was gently aspirated and fresh EGM-2 was added and cells were further incubated for 24 h. Miroscopy images were recorded with a Zeiss LSM 510 confocal microscope (Zeiss Canada Ltd, Toronto, Ontario, Canada). The effect of compound 1R on capillary tube disruption was evaluated by light microscopy (×40 magnification) and the results are summarized in Table III.

MDAMB435 = test: Inhibition of cell proliferation (GI50), MDAMB435; assay type: cell-based; conditions: Homo sapiens, MDA-MB-435; MDAMB435 cells, 72 h, CellTiter-Glo
Method: (§1) Human breast cancer cells MX-1 and MDAMB435, hepatocarcinoma cells SNU398, colon cancer cells HCT116 and HeLa cells were grown and harvested as in Example 7. An aliquot of […] of cells (4.4×10^4 cells/mL) was added to a well of a 96-well microtiter plate containing 5 μL of a 10% DMSO in RPMI-1640 media solution containing 10 nM to 100 μM of R(−)-2,7,8-triamino-4-(3-bromo-4,5-dimethoxy-phenyl)-3-cyano-4H-chromene (1 nM to 10 μM final). An aliquot of 45 μL of cells was added to a well of a 96-well microtiter plate containing 5 μL of a 10% DMSO in RPMI-1640 media solution without compound as the control sample for maximal cell proliferation (LMax). The samples were mixed by agitation and then incubated at 37° C. for 72 h in a 5% CO2−95% humidity incubator. After incubation, the samples were removed from the incubator and 25 μL of CellTiter-Glo™ reagent (Promega) was added. The samples were mixed by agitation and incubated at room temperature for 10-15 min. Plates were then read using a luminescent plate reader (Model SPECTRAfluor Plus, Tecan) to give Ltest values.
(§2) Baseline for GI50 (dose for 50% inhibition of cell proliferation) of initial cell numbers was determined by adding an aliquot of 45 μL of cells or 45 μL of media, respectively, to wells of a 96-well microtiter plate containing 5 μL of a 10% DMSO in RPMI-1640 media solution. […]

solid tumor cells = test: Caspase cascade activation and induction of apoptosis, overall statement; assay type: cell-based, human; conditions: summary of Table I
Method: (§3) Human breast cancer cell lines T-47D and ZR-75-1, human colon cancer cell line DLD-1 and human non-small cell lung cancer cell line H1299 were grown according to media component mixtures designated by American Type Culture Collection+10% FCS (Invitrogen Corporation), in a 5% CO2−95% humidity incubator at 37° C. T-47D and ZR-75-1 cells were maintained at a cell density between 30 and 80% confluency at a cell density of 0.1 to 0.6×10^6 cells/mL. Cells were harvested at 600×g and resuspended at 0.65×10^6 cells/mL into appropriate media+10% FCS. An aliquot of […] of cells was added to a well of a 96-well microtiter plate containing 5 μl of a 10% DMSO in RPMI-1640 media solution containing about 0.16 to 10 μM of 2,7,8-triamino-4-(3-bromo-4,5-dimethoxy-phenyl)-3-cyano-4H-chromene (1) or other test compounds (0.016 to 1 μM final). An aliquot of 45 μl of cells was added to a well of a 96-well microtiter plate containing 5 μl of a 10% DMSO in RPMI-1640 media solution without test compound as the control sample. The samples were mixed by agitation and then incubated at 37° C. for 24 h in a 5% CO2−95% humidity incubator. […] Using a fluorescent plate reader (Model 1420 Wallac Instruments), an initial reading (T=0) was made about 1-2 min after addition of the substrate solution, employing excitation at 485 nm and emission at 530 nm, to determine the background fluorescence of the control sample. After the 3 h incubation, the samples were read for fluorescence as above (T=3 h).
(§4) The activity of caspase cascade activation was determined by the ratio of the net RFU value for 2,7,8-triamino-4-(3-bromo-4,5-dimethoxy-phenyl)-3-cyano-4H-chromene or other test compound to that of control samples. The EC50 (nM) was determined by a sigmoidal dose-response calculation (Prism 2.0, GraphPad Software Inc.).

T-47D = test: Caspase activation assay in T-47D cells; assay type: cell-based; conditions: Homo sapiens; T47D cells, 24 h incubation; read-out: Caspase activation potency EC50 T47D
Method: (§5) Human breast cancer cell lines T-47D and ZR-75-1, human colon cancer cell line DLD-1 and human non-small cell lung cancer cell line H1299 were grown according to media component mixtures designated by American Type Culture Collection+10% FCS (Invitrogen Corporation), in a 5% CO2−95% humidity incubator at 37° C. T-47D and ZR-75-1 cells were maintained at a cell density between 30 and 80% confluency at a cell density of 0.1 to 0.6×10^6 cells/mL. Cells were harvested at 600×g and resuspended at 0.65×10^6 cells/mL into appropriate media+10% FCS. An aliquot of […] of cells was added to a well of a 96-well microtiter plate containing 5 μl of a 10% DMSO in RPMI-1640 media solution containing about 0.16 to 10 μM of 2,7,8-triamino-4-(3-bromo-4,5-dimethoxy-phenyl)-3-cyano-4H-chromene (1) or other test compounds (0.016 to 1 μM final). An aliquot of 45 μl of cells was added to a well of a 96-well microtiter plate containing 5 μl of a 10% DMSO in RPMI-1640 media solution without test compound as the control sample. The samples were mixed by agitation and then incubated at 37° C. for 24 h in a 5% CO2−95% humidity incubator. After incubation, the samples were removed from the incubator and 50 μl of a solution containing 20 μM of N-(Ac-DEVD)-N′-ethoxycarbonyl-R110 (SEQ ID No:1) fluorogenic substrate (Cytovia, Inc.; U.S. Pat. No. 6,335,429), 20% sucrose (Sigma), 20 mM DTT (Sigma), 200 mM NaCl (Sigma), 40 mM Na PIPES buffer pH 7.2 (Sigma), and 500 μg/ml lysolecithin (Calbiochem) was added. The samples were mixed by agitation and incubated at room temperature. Using a fluorescent plate reader (Model 1420 Wallac Instruments), an initial reading (T=0) was made about 1-2 min after addition of the substrate solution, employing excitation at 485 nm and emission at 530 nm, to determine the background fluorescence of the control sample. After the 3 h incubation, the samples were read for fluorescence as above (T=3 h).
(§6) The Relative Fluorescence Unit values (RFU) were used to calculate the sample readings as follows: RFU(T=3h)−Control RFU(T=0)=Net RFU(T=3h)
as §4

H1299 = test: Caspase activation assay in H1299 cells; assay type: cell-based; conditions: Homo sapiens, NCI-H1299, 24 h incubation, read-out: Caspase activation potency EC50 H1299
Method: as §5, §6, §4

HCT116 = test: Inhibition of cell proliferation (GI50), HCT116; assay type: cell-based; conditions: Homo sapiens, HCT-116; HCT116 cells, 72 h, CellTiter-Glo
Method: as §1, §2

ZR-75-1 = test: Caspase activation assay in ZR-75-1 cells; assay type: cell-based; conditions: Homo sapiens, ZR751 cells, 24 h incubation, read-out: Caspase activation potency EC50 ZR751
Method: as §3, §6, §4

In the case of `COc1cc([C@H]2C(C#N)=C(N)Oc3c2ccc(N)c3N)cc(Br)c1OC` [Compound 1R, R(−)-2,7,8-triamino-4-(3-bromo-4,5-dimethoxy-phenyl)-3-cyano-4H-chromene], the “Tube formation % inhibition” value (HUVEC cells; 3.3 nM) is reported as “No inhibition”, the “Lowest concentration that inhibited tube formation” value (HUVEC cells; HUVEC tubes) is reported as 10 nM and the inhibition at 0.01 µM (HUVEC cells; Homo sapiens, HUVEC, 10 nM, read-out: Tube formation % inhibition) is reported as 75%. The inhibition at 0.03 µM (HUVEC cells; Homo sapiens, HUVEC, 30 nM, read-out: Tube formation % inhibition) was 100%, the inhibition at 0.1 µM (HUVEC cells; Homo sapiens, HUVEC, 100 nM, read-out: Tube formation % inhibition) was 100% and the GI50 (MDAMB435) was 9 nM. For the same compound, the “Caspase cascade activator and inducer of apoptosis (in words)” value (solid tumor cells) was “potent caspase cascade activator and inducer of apoptosis”, the EC50 (T-47D) was 21 nM and the EC50 (H1299) was 62 nM. The GI50 (HCT116) was 19 nM and the EC50 (ZR-75-1) was 19 nM.
